Consider seven compounds from patent US12295970B2, “Imidazoquinoline compounds and prodrugs thereof” (UNIVERSITY OF KANSAS, priority 2019, dated 2025).

Common to all, as to assay type: cell-based
For one experiment, the target named is T1, hTLR7 (Homo sapiens, UniProt Q9NYK1).
T1 construct: host or cells: HEK293 (HEK-Blue hTLR7)
T1 sequence (Q9NYK1 27-1049): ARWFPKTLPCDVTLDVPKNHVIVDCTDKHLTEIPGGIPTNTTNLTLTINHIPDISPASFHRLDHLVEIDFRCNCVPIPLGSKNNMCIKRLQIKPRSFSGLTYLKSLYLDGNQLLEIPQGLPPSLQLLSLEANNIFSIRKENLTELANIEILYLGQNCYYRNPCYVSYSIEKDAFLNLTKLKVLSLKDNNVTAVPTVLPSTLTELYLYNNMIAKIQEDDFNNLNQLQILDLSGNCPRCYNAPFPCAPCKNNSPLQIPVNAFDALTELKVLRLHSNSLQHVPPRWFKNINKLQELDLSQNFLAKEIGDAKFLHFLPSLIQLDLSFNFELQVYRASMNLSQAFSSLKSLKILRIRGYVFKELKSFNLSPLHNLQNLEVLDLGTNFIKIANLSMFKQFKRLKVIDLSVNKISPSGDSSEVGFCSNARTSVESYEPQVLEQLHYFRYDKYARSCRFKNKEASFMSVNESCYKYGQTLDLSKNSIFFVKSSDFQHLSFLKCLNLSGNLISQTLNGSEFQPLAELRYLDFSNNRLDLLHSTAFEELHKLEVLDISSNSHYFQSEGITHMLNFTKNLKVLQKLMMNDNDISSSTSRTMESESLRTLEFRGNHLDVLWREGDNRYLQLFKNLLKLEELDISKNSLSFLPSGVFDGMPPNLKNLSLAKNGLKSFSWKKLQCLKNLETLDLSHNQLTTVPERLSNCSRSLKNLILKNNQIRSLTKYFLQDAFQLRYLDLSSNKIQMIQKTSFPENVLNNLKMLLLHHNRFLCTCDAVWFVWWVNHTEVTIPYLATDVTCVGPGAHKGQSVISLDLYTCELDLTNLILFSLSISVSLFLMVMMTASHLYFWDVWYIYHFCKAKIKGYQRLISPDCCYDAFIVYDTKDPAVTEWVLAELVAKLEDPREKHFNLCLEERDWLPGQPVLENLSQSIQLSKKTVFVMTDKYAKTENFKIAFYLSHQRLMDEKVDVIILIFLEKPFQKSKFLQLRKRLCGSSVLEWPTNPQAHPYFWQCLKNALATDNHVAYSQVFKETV
The experiment can be described thus: SEAP reporter assay for hTLR-7 activity (HEK-Blue hTLR7 cells). The settings on record: for EC50: ± SD, hTLR7 transfected HEK-Blue cells, Null subtracted, three independent measurements, 12 hours, read-out: EC50 TLR7. The procedure:
(§1) TLR activation induces NF-κB production and subsequent SEAP secretion, which is measured using HEK-Detection media (InvivoGen) containing a colorimetric substrate for SEAP (UV-Vis, 637 nm).
(§2) The experiments followed manufacturer protocol as follows: SEAP levels were measured via absorbance at 637 nm using HEK-Blue Detection cell culture medium (InvivoGen), which contains a SEAP-specific colorimetric substrate. Compound stock solutions were first diluted in sterile DMSO at a concentration of 10 mM. Lower concentrations were prepared by serial dilution of the initial 10 mM stock samples into sterile DMSO and these solutions (22 μL) were subsequently diluted into sterile H2O (198 μL) using a BioTek Precision XS pipetting system. HEK-Blue hTLR7, HEK-Blue hTLR8, Null 1−k, and Null 1 cell suspensions in sterile HEK-Blue Detection medium were prepared at a density of 220,000 cells per mL. Clear bottom, 96-well tissue culture treated plates (Corning) were seeded with hTLR7 and Null 1−k or hTLR8 and Null 1 cell suspensions (180 μL/well), after which 20 μL of the various sample concentrations in 10% v/v DMSO/H2O were added (20 μL) in quadruplicate wells to yield the desired testing concentration in 1% v/v DMSO cell suspension. Plates were incubated at 37° C. and 5% CO2 in the dark. Absorbance measurements were taken at 637 nm at 12 hours, 4 replicates per concentration point, per cell line (hTLR7, hTLR8, Null 1−k, Null 1). Three independent measurements on different days were performed for each analog.
(§3) Corresponding well absorbance values for each concentration tested were averaged with respect to days tested, and the average relative NF-κB induction (UV-Vis, 637 nm) of the null cell lines (Null 1-k or Null 1) were subtracted from the respective average TLR expressing cell line (hTLR7 or hTLR8) absorbance averages. […] The three independent, normalized averages for each analog were then pooled, and the data was fit using the Hill-Slope model (GraphPad Prism v7.0) using the non-linear fit from the [Agonist] vs. response—Variable Slope (four parameters) with a hill slope constrained to less than 3.
Background: Reporter assays use an easily measured gene product as a stand-in for the process of interest.

For a further experiment, the target named is T2, hTLR8 (Homo sapiens, UniProt Q9NR97).
T2 construct: host or cells: HEK293 (HEK-Blue hTLR8)
T2 sequence (Q9NR97 27-1041): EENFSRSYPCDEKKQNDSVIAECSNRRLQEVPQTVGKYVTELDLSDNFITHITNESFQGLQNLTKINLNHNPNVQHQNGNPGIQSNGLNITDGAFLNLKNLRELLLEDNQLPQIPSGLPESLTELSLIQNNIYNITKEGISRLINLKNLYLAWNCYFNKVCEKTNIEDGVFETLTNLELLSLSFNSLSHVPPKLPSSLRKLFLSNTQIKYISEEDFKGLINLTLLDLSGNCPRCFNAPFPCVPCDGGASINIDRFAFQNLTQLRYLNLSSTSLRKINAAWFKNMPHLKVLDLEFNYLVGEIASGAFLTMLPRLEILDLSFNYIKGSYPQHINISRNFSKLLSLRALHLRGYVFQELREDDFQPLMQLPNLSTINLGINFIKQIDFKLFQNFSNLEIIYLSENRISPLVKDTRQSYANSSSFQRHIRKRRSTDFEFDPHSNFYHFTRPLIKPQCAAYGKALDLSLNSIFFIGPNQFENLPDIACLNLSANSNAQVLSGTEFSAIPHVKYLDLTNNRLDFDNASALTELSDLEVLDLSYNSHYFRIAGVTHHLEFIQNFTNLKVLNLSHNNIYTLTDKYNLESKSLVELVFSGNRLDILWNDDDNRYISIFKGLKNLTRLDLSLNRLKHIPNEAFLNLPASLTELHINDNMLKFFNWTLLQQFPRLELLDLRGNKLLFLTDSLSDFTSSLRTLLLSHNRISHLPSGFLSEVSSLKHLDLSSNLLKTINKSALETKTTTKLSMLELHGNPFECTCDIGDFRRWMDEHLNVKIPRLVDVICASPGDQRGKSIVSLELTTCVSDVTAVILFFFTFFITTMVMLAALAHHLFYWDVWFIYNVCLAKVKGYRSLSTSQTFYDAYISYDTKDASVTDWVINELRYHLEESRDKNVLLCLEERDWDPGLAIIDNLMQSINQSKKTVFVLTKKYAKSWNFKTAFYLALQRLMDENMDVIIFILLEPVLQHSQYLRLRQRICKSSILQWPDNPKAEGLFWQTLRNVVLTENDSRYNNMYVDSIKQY
Kind of experiment: SEAP reporter assay for hTLR-8 activity (HEK-Blue hTLR8 cells). The settings on record: for EC50: ± SD, hTLR8 transfected HEK-Blue cells, Null subtracted, three independent measurements, 12 hours, >100 = no activity observed at 100 μM, read-out: EC50 TLR8. The procedure: as §1, §2, §3

The test system of experiment [1] is canine peripheral blood mononuclear cells (cPBMCs). Kind of experiment: Cytokine production in canine PBMCs by ELISA (Example 2). The note with it: for Cytokine IFNg / Cytokine IL-2 / Cytokine IL-6 / Cytokine IL-10 / Cytokine IL-12 / Cytokine TNFa: ± SD, 29 hours, ELISA, triplicate. The procedure: The imidazoquinolines were further screened for cytokine production in canine peripheral blood mononuclear cells (cPBMCs). […] TNFα and IL-12 were chosen as they are typically seen in a Th-1 cytokine response.
Peripheral blood from a healthy canine donor was obtained with appropriate informed consent of the owner and under approved institutional guidelines. Blood (8 mL per tube) was drawn via sterile venipuncture into a BD Vacutainer cell preparation tube containing sodium heparin (BD Biosciences). PBMCs were isolated within one hour following procurement by density gradient centrifugation according to the manufacturer protocol and resuspended to 2.22×10^6 cells/mL in sterile RPMI 1640 medium with L-glutamine (Gibco) supplemented with 100 U/mL penicillin, 100 μg/mL streptomycin (Corning) and 10% (v/v) heat-inactivated Fetalgro (RMBIO). Corning 3917, 96-well tissue culture treated plates were seeded with the PBMC suspension (180 μL/well), 20 μL of the serially diluted TLR agonists were added in triplicate to yield the desired concentrations in a 1% (v/v) DMSO cell suspension. Cells were incubated at 37° C. in 5% CO2 for 9 hours (FIGS. 3A-3D) or 29 hours (Table 2) after which supernatants were removed and frozen at −80° C. Cytokine secretion levels were measured by ELISA (Duoset, R&D Systems) according to the manufacturer protocol. Samples and standards (n=3) were thawed and plated onto a Maxisorp flat-bottom, 384-well plate (Thermo Scientific) using a BioTek Precision XS pipetting system. Cytokine concentrations were determined by a hyperbolic or four-parameter logistic non-linear regression of the recombinant standards and subsequent interpolation using Graphpad Prism 7.0.
A general note: An ELISA detects its analyte on a solid surface through an enzyme-linked reagent.

For the compound `CC(C)Cn1cnc2c(N)nc3ccccc3c21` [Compound 1, imiquimod, reference compound], at hTLR7, the “agonist for TLR7 receptor (in words)” value is recorded as “agonists” and the EC50 (commonly the concentration giving half of the maximal effect) came to 6800 ± 800 nM. On hTLR8, the “agonist for TLR8 receptor (in words)” value is “agonists” and the EC50 was 25000 ± 3000 nM.
Take `CCCCc1nc2c(N)nc3cc(OC)ccc3c2n1CC(C)C` [Compound 4, 4-Amino-2-butyl-7-methoxy-1-(2-methylpropyl)-1H-imidazo[4,5-c]quinoline]: in experiment [1] (20 μM), the “Cytokine IFNg” value was determined as 0 pg/mL, the “Cytokine IL-2” value is 30 ± 29 pg/mL, the “Cytokine IL-6” value is on record as 500 ± 140 pg/mL and the “Cytokine IL-10” value came out at 37 ± 13 pg/mL. In addition, in experiment [1] (20 μM), the “Cytokine IL-12” value was determined as 746 ± 130 pg/mL and the “Cytokine TNFa” value is 49 ± 9 pg/mL. On hTLR7, the concentration for a half-maximal effect (EC50) amounted to 110 ± 10 nM. At hTLR8, the 50% effective concentration (EC50) was over 100000 nM.
Regarding `CCCCc1nc2c(N)nc3cc(OC)ccc3c2n1CC(C)(C)O` [Compound 5, 4-Amino-2-butyl-1-(2-hydroxy-2-methylpropyl)-7-methoxy-1H-imidazo[4,5-c]quinoline], in experiment [1] (20 μM), the “Cytokine IFNg” value is 14.5 ± 6 pg/mL, the “Cytokine IL-2” value is listed as 82 ± 56 pg/mL, the “Cytokine IL-6” value worked out at 290 ± 63 pg/mL and the “Cytokine IL-10” value came to 14 ± 2 pg/mL. Further, in experiment [1] (20 μM), the “Cytokine IL-12” value is given as 2000 ± 160 pg/mL and the “Cytokine TNFa” value is on record as 64 ± 12 pg/mL. Further, the EC50 at hTLR7 was 81 ± 9 nM. The EC50 on hTLR8 amounted to 1700 ± 300 nM.
For `CCCCc1nc2c(N)nc3cc(Cl)ccc3c2n1CC(C)C` [Compound 6, 4-Amino-2-butyl-7-chloro-1-(2-methylpropyl)-1H-imidazo[4,5-c]quinoline], in experiment [1] (20 μM), the “Cytokine IFNg” value is recorded as 7 ± 1 pg/mL, the “Cytokine IL-2” value is 63 ± 44 pg/mL, the “Cytokine IL-6” value came to 240 ± 67 pg/mL and the “Cytokine IL-10” value turned out to be 14 ± 4 pg/mL. Moreover, in experiment [1] (20 μM), the “Cytokine IL-12” value was 760 ± 50 pg/mL and the “Cytokine TNFa” value came out at 91 ± 20 pg/mL. Further, the EC50 at hTLR7 turned out to be 300 ± 20 nM. Further, the EC50 at hTLR8 is over 100000 nM.
`CCOCc1nc2c(N)nc3cc(Cl)ccc3c2n1CC(C)C` [Compound 7, 4-Amino-7-chloro-2-(ethoxymethyl)-1-(2-methylpropyl)-1H-imidazo[4,5-c]quinoline]: in experiment [1] (20 μM), the “Cytokine IFNg” value worked out at 5 ± 5 pg/mL, the “Cytokine IL-2” value was determined as 50 ± 22 pg/mL, the “Cytokine IL-6” value was 280 ± 81 pg/mL and the “Cytokine IL-10” value was 20 ± 1 pg/mL. In experiment [1] (20 μM), the “Cytokine IL-12” value turned out to be 781 ± 40 pg/mL and the “Cytokine TNFa” value was 114 ± 25 pg/mL. Moreover, the EC50 at hTLR7 stood at 910 ± 90 nM. Moreover, the EC50 on hTLR8 is over 100000 nM.
Regarding `CCCCc1nc2c(N)nc3cc(Cl)ccc3c2n1CC(C)(C)O` [Compound 8, 4-Amino-2-butyl-7-chloro-1-(2-hydroxy-2-methylpropyl)-1H-imidazo[4,5-c]quinoline], in experiment [1] (20 μM), the “Cytokine IFNg” value turned out to be 13 ± 10 pg/mL, the “Cytokine IL-2” value was found to be 55 ± 30 pg/mL, the “Cytokine IL-6” value is on record as 230 ± 44 pg/mL and the “Cytokine IL-10” value came to 7 ± 6 pg/mL. In addition, in experiment [1] (20 μM), the “Cytokine IL-12” value came out at 1700 ± 330 pg/mL and the “Cytokine TNFa” value is recorded as 22 ± 4 pg/mL. In addition, on hTLR7, the EC50 turned out to be 84 ± 7 nM. Moreover, the EC50 at hTLR8 was 1500 ± 200 nM.
`CCCCc1nc2c(N)nc3cc(O)ccc3c2n1CC(C)C` [Compound 14, 4-Amino-2-butyl-7-hydroxy-1-(2-methylpropyl)-1H-imidazo[4,5-c]quinoline]: the “cytokine induction (in words)” value in experiment [1] is reported as “barely potentiates any cytokine induction”. Further, in experiment [1] (20 μM), the “IL-12 response (in words)” value is reported as “one of the lowest IL-12 responses”, the “TNFα response (in words)” value is listed as “one of the highest TNFα responses”, the “Cytokine IFNg” value was 9 ± 8 pg/mL and the “Cytokine IL-2” value was 79 ± 19 pg/mL. For the same compound, in experiment [1] (20 μM), the “Cytokine IL-6” value is reported as 330 ± 92 pg/mL, the “Cytokine IL-10” value is 17 ± 3 pg/mL, the “Cytokine IL-12” value turned out to be 102 ± 65 pg/mL and the “Cytokine TNFa” value is given as 270 ± 70 - pg/mL. Also, the EC50 on hTLR7 turned out to be 73 ± 5 nM.
